{"source": "patent US9549912B2", "about": "“Methods for treating atrial fibrillation” (Armetheon, Inc., priority 2009, dated 2017)", "key": {"[1]": {"tested_on": "sodium, potassium, and calcium ion channels", "assay": "Electrophysiological activity in animals: ion channel inhibition"}, "[2]": {"assay": "Safety, ECG and thyroid function (Example 1)", "assay_type": "in vivo, human", "method": "Patients were then monitored for at least 3 h continuously post-dose; this included telemetry, vital signs, and oxygen saturations. Electrocardiograms were taken, and the pacemaker data were downloaded prior to drug administration on day 8 and day 14 of each study period.\nCriteria for drug discontinuation included a fall in systolic blood pressure (BP) to <90 mmHg systolic, an increase in BP>200 mmHg, intolerable side-effects, a change in rhythm that in the opinion of the investigator constituted a risk to safety, or a QRS increase >50%. Where possible, ECGs of intrinsic rhythm rather than ventricular-paced rhythm were obtained, as paced complexes can be difficult to interpret for QT prolongation. An increase in QT interval >470 ms for intrinsic and >550 ms for paced beats or an increase of 30% was considered significant.\nElectrocardiogram parameters (ventricular HR, PR, QRS, QT, QTc interval) were summarized by baseline, dosing period, and washout using descriptive statistics. Changes from baseline in ECG values at day 8 of dosing and day 14 of washout were also summarized. Baseline values of ECG parameters are defined as the mean of three values recorded prior to the first dose of ATI-2042."}, "[3]": {"assay": "Metabolism and elimination features of budiodarone"}, "[4]": {"molecular_target": "cytochrome P450 2C9 (CYP2C9) (Homo sapiens, UniProt P11712)", "sequence (P11712 whole entry)": "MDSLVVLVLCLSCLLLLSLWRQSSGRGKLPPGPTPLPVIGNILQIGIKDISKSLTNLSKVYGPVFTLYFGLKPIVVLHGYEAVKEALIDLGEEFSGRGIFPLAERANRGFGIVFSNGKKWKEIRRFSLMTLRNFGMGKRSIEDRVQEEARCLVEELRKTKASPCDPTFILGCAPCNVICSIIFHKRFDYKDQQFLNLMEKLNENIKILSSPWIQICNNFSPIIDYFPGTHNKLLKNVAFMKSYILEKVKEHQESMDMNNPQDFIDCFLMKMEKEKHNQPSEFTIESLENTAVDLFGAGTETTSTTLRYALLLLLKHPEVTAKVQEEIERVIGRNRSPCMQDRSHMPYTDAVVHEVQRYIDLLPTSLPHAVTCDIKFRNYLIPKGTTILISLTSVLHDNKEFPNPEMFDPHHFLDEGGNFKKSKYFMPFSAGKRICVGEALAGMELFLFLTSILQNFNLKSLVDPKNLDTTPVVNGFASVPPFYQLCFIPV", "assay": "CYP2C9 inhibition", "assay_type": "in vitro ADME"}, "[5]": {"assay": "Electrophysiological activity in animals: atrial refractoriness, metabolite activity", "assay_type": "in vivo", "conditions": "animals"}, "[6]": {"tested_on": "subjects with paroxysmal atrial fibrillation who had implanted pacemakers", "assay": "Proof of concept study of ATI-2042 in PAF patients with pacemakers: AF burden and AF episodes (Example 1)", "assay_type": "in vivo, human", "text": "Epub 2009 Jan. 26). This study was a proof of concept design seeking preliminary information on the pharmacodynamic effects, safety, and tolerability of the investigational drug ATI-2042 at a variety of doses, in patients with PAF. Patients with advanced DDDRP pacemakers were selected because of the pacemaker's sophisticated diagnostics and the ability to record continuously and log asymptomatic as well as symptomatic episodes. Only post-menopausal or surgically sterile females with a significant PAF burden and pacemakers were included in this study. The pacemakers had to have been in situ for at least 1 month prior to the study and have appropriate arrhythmia diagnostics. In this study, Vitatron pacemakers, models Selection 9000 or T70 pacemakers, were used. […] Although this finding was explored further, it was prudent to commence clinical testing in a population not at risk for this effect. […] The patients underwent screening assessments to assess suitability for the study and to obtain a baseline medical history and examination. The value of this cohort was that the pacemaker was not inserted for bradycardia but for the treatment of AF using various prevention pacing and rate control techniques. The inclusion criteria were as follows: age 18-85 years; […] The initial ATI-2042 dosage for all subjects was 200 mg orally bid, and it was then increased by 200 mg bid for each subsequent study period. Patients received 200 mg bid of ATI-2042 during period 2, 400 mg bid during period 3, 600 mg bid during period 4 and 800 mg bid during period 5, and no drug was administered during baseline and washout periods. “Selection 9000” and “T70” pacemakers (Vitatron, […], The Netherlands) are dual-chamber pacemakers with sophisticated and similar algorithms for AF detection and prevention. Atrial fibrillation detection is based on atrial rate; atrial tachyarrhythmias are detected when the median atrial cycle length is less than that programmed for AT or AF detection. In all patients, atrial fibrillation was detected if the atrial rate was >200 bpm for six consecutive beats, and its end logged if the atrial rate dropped below 200 bpm for 10 beats. […] Pacemaker anti-arrhythmic algorithms were turned off prior to entry into the baseline period and remained turned off until after washout. […] The primary outcome measure, AFB, was defined as the duration of time the subject's cardiac rhythm was AF divided by the total time recorded for that study period, expressed as percent. The total duration of time that the rhythm was AF is a function of the number of PAF episodes and the duration of each episode. Therefore, a reduction in AFB can occur through reduction in either or both of these variables. Atrial fibrillation burden was compared with baseline during the treatment periods. Secondary outcome measures were the number of AF episodes, the safety of ATI-2042, and the incidence and severity of adverse events (AEs). […] Atrial fibrillation burden is given as the percentage of total storage duration. The sample size for this study was selected empirically. All patients who received any amount of study medication were included in the efficacy and safety analysis. Efficacy variables for the study group are described as mean and standard deviation for each study period. Due to the small number of subjects, comparisons of periods 2-6 with baseline were made using estimates from a mixed-effects regression model."}, "[7]": {"assay": "Safety and tolerability (Example 2)", "assay_type": "in vivo, human", "text": "Safety: treatment-emergent adverse event (TEAE) type, severity, and incidence; clinical laboratory assessments, including thyroid function and testicular function (males); coagulation tests; vital signs; physical examinations; ECGs; eye examinations; chest X-rays; and pulmonary function tests.\nStatistical methods for safety: Adverse events (AEs) were summarized by system organ class and preferred term. Laboratory parameters and vital signs were summarized by descriptive statistics and shift tables were also created for laboratory parameters. The percent of patients with physical examination findings that changed over the study, with ECG abnormalities by visit, and with corneal deposits were summarized. Chest X-rays and pulmonary function test results were provided in listings."}}, "note": "Several values for one entry are separate records, joined by “and”; a condition that tells them apart may be missing. Equal values may be shown once. Entries after “also recorded” stand apart in the source; their conditions may differ.", "data": [{"substance": "(S)-sec-butyl 2-(3-(4-(2-(diethylamino)ethoxy)-3,5-diiodobenzoyl)benzofuran-2-yl)acetate [ATI-2042]", "values": [{"measurement": "inhibition of sodium, potassium, and calcium ion channels", "setting": "[1]", "value": "inhibition comparable with amiodarone"}, {"measurement": "PR interval reduction from baseline", "setting": "[2]; 200 mg bid", "value": "16.6+23.9%"}, {"measurement": "PR interval reduction from baseline", "setting": "[2]; 400 mg bid", "value": "11.4+22.6%"}, {"measurement": "change in QTc from baseline, one patient", "setting": "[2]; 400 mg bid, patient with AV node ablation, permanently paced", "value": "30 to 60", "unit": "ms"}, {"measurement": "change in paced QTc from baseline, one patient", "setting": "[2]; 400 mg bid, same patient", "value": 15, "unit": "%"}, {"measurement": "PR interval reduction from baseline", "setting": "[2]; 600 mg bid", "value": "27.0+32.1%"}, {"measurement": "PR interval reduction from baseline", "setting": "[2]; 800 mg bid", "value": "35.1 ± 30.9", "unit": "%"}, {"measurement": "tolerability", "setting": "[2]; 200-800 mg bid", "value": "generally well tolerated"}, {"measurement": "change from baseline QT or QTc with dosing", "setting": "[2]; all patients, paced or not", "value": "No patient exhibited >30% change"}, {"measurement": "changes in HR, QRS, QT, or QTc", "setting": "[2]; between baseline and dosing or washout", "value": "no significant changes"}, {"measurement": "proarrhythmia, clinical hypothyroidism, hyperthyroidism", "setting": "[2]; in vivo", "value": "no cases of proarrhythmia, clinical hypothyroidism, or hyperthyroidism"}, {"measurement": "serious AEs", "setting": "[2]; in vivo", "value": "no serious AEs related to study drug"}, {"measurement": "thyroid-stimulating hormone level reached after increase, individual patients", "setting": "[2]; three patients, from 2.53, 3.51 and 0.68, normal range 0.27-4.2", "value": "4.82 mU/L and 9.49 mU/L and 16.12 mU/L"}, {"measurement": "PR interval reduction from baseline", "setting": "[2]; washout", "value": "30.7 ± 24.3", "unit": "%"}, {"measurement": "metabolism", "setting": "[3]", "value": "primarily metabolized by esterases"}, {"measurement": "pharmacokinetic features", "setting": "[3]", "value": "short half-life, rapid onset and offset, small volume of distribution, and cytochrome P450-independent elimination"}, {"measurement": "CYP2C9 inhibition", "setting": "[4]", "value": "inhibitor; also recorded: inhibit CYP2C9"}, {"measurement": "left and right atrial refractoriness", "setting": "[5]", "value": "increased left and right atrial refractoriness comparable with amiodarone"}, {"measurement": "mean AFB (SD)", "setting": "[6]; 200 mg bid (p2), baseline 20.3+14.6%", "value": "5.2+4.2%"}, {"measurement": "mean AFB (SD)", "setting": "[6]; 400 mg bid (p3)", "value": "5.2+5.2%"}, {"measurement": "mean AFB (SD)", "setting": "[6]; 600 mg bid (p4)", "value": "2.8+3.4%"}, {"measurement": "mean AFB (SD)", "setting": "[6]; 800 mg bid (p5)", "value": "1.5 ± 0.5", "unit": "%"}, {"measurement": "effect on AFB in refractory PAF patients", "setting": "[6]; all doses", "value": "significantly effective in reducing AFB at all doses"}, {"measurement": "decrease in AFB", "setting": "[6]; all doses (200-800 mg bid)", "value": "at least 70%"}, {"measurement": "number of AF episodes", "setting": "[6]; on drug, remained elevated in washout", "value": "increased initially"}, {"measurement": "relative reduction (RR) in AFB from baseline", "setting": "[6]; p2, 200 mg bid", "value": "71.2 ± 31.3", "unit": "%"}, {"measurement": "mean episode duration (SD)", "setting": "[6]; p2, 200 mg bid, baseline 4.8+5.2", "value": "1.7+2.5 h"}, {"measurement": "mean episode duration (SD)", "setting": "[6]; p3, 400 mg bid", "value": "0.6+0.7 h"}, {"measurement": "relative reduction (RR) in AFB from baseline", "setting": "[6]; p3, 400 mg bid", "value": "71.7 ± 20.6", "unit": "%"}, {"measurement": "mean episode duration (SD)", "setting": "[6]; p4, 600 mg bid", "value": "0.1+0.2 h"}, {"measurement": "relative reduction (RR) in AFB from baseline", "setting": "[6]; p4, 600 mg bid", "value": "79.9 ± 26.4", "unit": "%"}, {"measurement": "mean episode duration (SD)", "setting": "[6]; p5, 800 mg bid", "value": "0.5+0.7 h"}, {"measurement": "relative reduction (RR) in AFB from baseline", "setting": "[6]; p5, 800 mg bid", "value": "86.8 ± 9.8", "unit": "%"}, {"measurement": "mean episode duration (SD)", "setting": "[6]; washout", "value": "2.4+3.0 h"}, {"measurement": "mean AFB (SD)", "setting": "[6]; washout (p6), no drug", "value": "11.7+14.0%"}, {"measurement": "tolerability", "setting": "[7]; 200, 400, 600 mg BID, up to 12 weeks", "value": "well tolerated"}, {"measurement": "creatinine", "setting": "[7]; BUN unchanged", "value": "reversible elevation"}, {"measurement": "ALT", "setting": "[7]; appeared dose related", "value": "mild, reversible increase"}, {"measurement": "corneal deposits (slit-lamp examination)", "setting": "[7]; end of treatment period", "value": "No patient treated with ATI-2042 developed corneal deposits"}, {"measurement": "SAEs possibly related to drug", "setting": "[7]; hematuria and high INR", "value": "Only one SAE was possibly related"}, {"measurement": "amiodarone-like end-organ toxicity (pulmonary fibrosis, corneal deposits, neuropathy, photosensitivity)", "setting": "[7]; in vivo", "value": "No evidence of amiodarone-like end-organ toxicity was seen"}, {"measurement": "thyroid function changes", "setting": "[7]; in vivo", "value": "mild and reversible"}, {"measurement": "most frequent TEAEs", "setting": "[7]; patients on concomitant warfarin", "value": "changes in INR values"}]}]}
